Laboratory results reported in patent US20110183978A1, “Phenylpyri(mi)dinylazoles” (Bayer CropScience AG, priority 2009, published 2011).

experiment: physchem; conditions: LogPA

Row | SMILES | chromatographic logP
1 | Fc1ccc(-c2nn(C3CCCCC3)cc2-c2ccncc2)cc1 [Compound 168] | 1.91
2 | CC(C)Nc1nccc(-c2c[nH]nc2-c2ccc(F)cc2)n1 [Compound 172] | 1.37
3 | N#Cc1[nH]nc(-c2ccc(F)cc2)c1-c1ccncc1 [Compound 175] | 1.08
4 | FCC(CF)n1cc(-c2ccncc2)c(-c2ccc(F)cc2)n1 [Compound 177] | 1.16
5 | CC(C)Cn1cc(-c2ccnc(NCc3ccccc3)n2)c(-c2ccc(F)cc2)n1 [Compound 182] | 3.15
6 | CC(C)Cn1cc(-c2ccnc(N(C(=O)C(C)C)C(C)C)n2)c(-c2ccc(F)cc2)n1 [Compound 185] | 4.25
7 | CC(C)Cn1cc(-c2ccnc(N(C(=O)C(C)(C)C(=O)C(C)C)C(C)C)n2)c(-c2ccc(F)cc2)n1 [Compound 186] | 3.02
8 | CC(C)Cn1cc(-c2ccnc(N3CCCC3=O)c2)c(-c2ccc(F)cc2)n1 [Compound 187] | 3.19
9 | CC(C)Cn1cc(-c2ccnc(N(C(=O)C(C)C)C(=O)C(C)C)n2)c(-c2ccc(F)cc2)n1 [Compound 188] | 4.74
10 | CCn1cc(-c2ccnc(NC(=O)Cc3ccccc3)c2)c(-c2ccc(F)cc2)n1 [Compound 190] | 2.72
11 | CCC(=O)Nc1cc(-c2c(-c3ccc(Cl)cc3F)nn(C)c2C(F)(F)F)ccn1 [Compound 197] | 3.32
12 | COCC(=O)Nc1cc(-c2c(-c3cc(F)c(C#N)cc3F)nn(C)c2OC(F)F)ccn1 [Compound 199] | 2.59
13 | COCC(=O)Nc1cc(-c2c(-c3ccc(F)cc3O)nn(C)c2OC(F)F)ccn1 [Compound 201] | 2.38
14 | COCC(=O)Nc1cc(-c2c(-c3ccc(Cl)cc3F)nn(C)c2C(F)(F)F)ccn1 [Compound 202] | 3.45
15 | COCC(=O)Nc1cc(-c2cn(C3CCN(C(=O)OC(C)(C)C)CC3)nc2-c2ccc(F)cc2)ccn1 [Compound 204] | 3.51
16 | CC(C)S(=O)(=O)Nc1cc(-c2cn(CC(F)F)nc2-c2ccc(F)cc2)ccn1 [Compound 234] | 3.96
17 | CCOC(=O)Nc1cc(-c2cn(C(C)c3ccccc3F)nc2-c2ccc(F)cc2)ccn1 (stereo not drawn) [Compound 263] | 3.65
18 | CCOC(=O)Nc1cc(-c2cn(Cc3ccccc3F)nc2-c2ccc(F)cc2)ccn1 [Compound 266] | 3.24

Now from value to molecule:

Row | chromatographic logP | SMILES
19 | 3.65 | CC(C)C(=O)Nc1cc(-c2cn(OC3CCCC3)nc2-c2ccc(F)cc2)ccn1 [Compound 270]
20 | 2.9 | CC(C)Cn1cc(-c2ccnc(S(C)(=O)=O)n2)c(-c2ccc(F)cc2)n1 [Compound 287]
21 | 3.85 | Cc1csc2c(-c3cn(CC(C)C)nc3-c3ccc(F)cc3)ncnc12 [Compound 288]
22 | 3.45 | Cc1csc2c(-c3cn(CC4CC4)nc3-c3ccc(F)cc3)ncnc12 [Compound 289]
23 | 4.07 | CCC(=O)Nc1cc(-c2c(-c3ccc(F)cc3)nn(C(C)C)c2C(F)(F)F)ccn1 [Compound 304]
24 | 2.69 | CC(C)C(=O)Nc1cc(-c2cn(Cc3cccc(C#N)c3)nc2-c2ccc(F)cc2)ccn1 [Compound 308]
25 | 1.29 | CC(C)n1cc(-c2ncnc3c2CCCN3)c(-c2ccc(F)cc2)n1 [Compound 311]
26 | 3.88 | CC(C)n1cc(-c2ccnc(NC(c3ccc(F)cc3)C(F)(F)F)c2)c(-c2ccc(F)cc2)n1 (stereo not drawn) [Compound 324]
27 | 3.66 | CC(C)n1cc(-c2ccnc(NC(c3ccccc3)C(F)(F)F)c2)c(-c2ccc(F)cc2)n1 (stereo not drawn) [Compound 325]
28 | 2.16 | CCn1cc(-c2ccnc(NC(=O)CCCCC(=O)OC)c2)c(-c2ccc(F)cc2)n1 [Compound 330]
29 | 2.47 | CCn1cc(-c2ccnc(NC(=O)c3cn(C)nc3C(F)F)c2)c(-c2ccc(F)cc2)n1 [Compound 333]
30 | 3.27 | CCn1cc(-c2ccnc(NC(=O)c3ccsc3C(F)F)c2)c(-c2ccc(F)cc2)n1 [Compound 334]
31 | 3.32 | CCn1cc(-c2ccnc(NC(=O)CCc3ccc(Cl)cc3)c2)c(-c2ccc(F)cc2)n1 [Compound 336]
32 | 2.54 | Cn1cc(-c2ccnc(NC(=O)CCc3ccccc3)c2)c(-c2ccc(F)cc2)n1 [Compound 343]
33 | 2.61 | Cn1cc(-c2ccnc(NC(=O)c3ccc(F)cc3)c2)c(-c2ccc(F)cc2)n1 [Compound 344]
34 | 1.96 | COCCOCC(=O)Nc1cc(-c2cn(C)nc2-c2ccc(F)cc2)ccn1 [Compound 345]
35 | 2.37 | COCC(=O)Nc1nccc(-c2cn(C(C)C)nc2-c2ccc(F)cc2)n1 [Compound 354]
36 | 2.55 | CC(C)C(=O)Nc1nccc(-c2cn(C(C)C)nc2-c2ccc(F)cc2)n1 [Compound 355]
37 | 2.49 | CC(C)n1cc(-c2ccnc(NC(=O)C3CC3)n2)c(-c2ccc(F)cc2)n1 [Compound 356]
38 | 2.44 | CC(=O)Nc1nccc(-c2cn(CC(C)C)nc2-c2ccc(F)cc2)n1 [Compound 357]
39 | 1.79 | COCCn1cc(-c2ccnc(NC(C)C)n2)c(-c2ccc(F)cc2)n1 [Compound 358]
40 | 2.05 | CC(C)Nc1nccc(-c2cn(CCCl)nc2-c2ccc(F)cc2)n1 [Compound 359]
41 | 2.41 | CCC(C)n1cc(-c2ccnc(NC(C)C)n2)c(-c2ccc(F)cc2)n1 (stereo not drawn) [Compound 360]
42 | 2.73 | CC(C)Cn1cc(-c2ccnc(NC(C)C3CC3)n2)c(-c2ccc(F)cc2)n1 (stereo not drawn) [Compound 372]

same assay, conditions: LogPA (logP of the stated pure compound or, in a mixture, of the main isomer, 1-substituted 3-aryl-1H-pyrazole)

Row | chromatographic logP | SMILES
43 | 2.27 | COc1ccc(-c2nn(C3CCCCO3)cc2-c2ccnc(C)n2)cc1 (stereo not drawn) [Compound 77]
44 | 2.64 | Fc1ccc(-c2nn(-c3ccc(C(F)(F)F)cn3)cc2-c2ccncc2)cc1 [Compound 79]
45 | 1.87 | COc1ccc(-c2nn(C3CCCCO3)cc2-c2ccnc3[nH]ccc23)cc1 (stereo not drawn) [Compound 80]
46 | 3.84 | CC(C)(C)C(=O)Nc1cc(-c2cnn(C3CCCCO3)c2-c2cccc(C(F)(F)F)c2)ccn1 (stereo not drawn) [Compound 82]
47 | 3.15 | CNC(=O)c1cc(-c2cn(C3CCCCO3)nc2-c2cccc(Cl)c2)ccn1 (stereo not drawn) [Compound 83]
48 | 2.72 | CNC(=O)c1cc(-c2cn(C3CCCCO3)nc2-c2ccc(F)cc2)ccn1 (stereo not drawn) [Compound 90]
49 | 4.34 | O=C(Nc1ccccc1)c1cc(-c2cn(C3CCCCO3)nc2-c2ccc(F)cc2)ccn1 (stereo not drawn) [Compound 94]
50 | 2.93 | NC(=O)c1cc(-c2cn(C3CCCCO3)nc2-c2cccc(Cl)c2)ccn1 (stereo not drawn) [Compound 95]
51 | 4.89 | O=C(Nc1ccccc1)c1cc(-c2cn(C3CCCCO3)nc2-c2cccc(Cl)c2)ccn1 (stereo not drawn) [Compound 96]
52 | 1.25 | CC(C)n1ncc(-c2ccnc(N)c2)c1-c1ccc(F)cc1 [Compound 97]
53 | 1.64 | c1ccc(COc2ccccc2-c2c(-c3ccncc3)cnn2C2CCCCO2)cc1 (stereo not drawn) [Compound 98, 4-{5-[2-(benzyloxy)phenyl]-1-(tetrahydro-2H-pyran-2-yl)-1H-pyrazol-4-yl}pyridine]
54 | 1.09 | c1cnc2c(-c3c(-c4ccncc4)cnn3C3CCCCO3)cccc2c1 (stereo not drawn) [Compound 99, 8-[4-(pyridin-4-yl)-1-(tetrahydro-2H-pyran-2-yl)-1H-pyrazol-5-yl]quinoline]
55 | 0.78 | Fc1ccc(-c2nn(Cc3cccnc3)cc2-c2ccncc2)cc1 [Compound 100]
56 | 1.88 | Fc1ccc(-c2nn(Cc3ccc(OC(F)F)cc3)cc2-c2ccncc2)cc1 [Compound 109]
57 | 2.9 | Fc1ccc(-c2nn(-c3nnc(C(F)(F)F)s3)cc2-c2ccncc2)cc1 [Compound 111]
58 | 2.73 | Fc1ccc(-c2nn(-c3cc(C(F)(F)F)ncn3)cc2-c2ccncc2)cc1 [Compound 112]
59 | 0.99 | Fc1ccc(-c2nn(Cc3ccccn3)cc2-c2ccncc2)cc1 [Compound 115]
60 | 2.04 | Fc1ccc(-c2nn(CCc3ccccc3Cl)cc2-c2ccncc2)cc1 [Compound 119]
61 | 0.25 | Fc1ccc(-c2nn(Cc3ccncc3)cc2-c2ccncc2)cc1 [Compound 121]
62 | 0.17 | OCC(O)Cn1cc(-c2ccncc2)c(-c2ccc(F)cc2)n1 (stereo not drawn) [Compound 124]
63 | 2.38 | Fc1ccc(-c2nn(Cc3cccc(-c4ccccc4)c3)cc2-c2ccncc2)cc1 [Compound 125]
64 | 1.84 | Fc1ccc(-c2nn(Cc3ccccc3F)cc2-c2ccncc2)cc1 [Compound 128]
65 | 1.69 | Fc1ccc(Cn2cc(-c3ccncc3)c(-c3ccc(F)cc3)n2)cc1 [Compound 130]
66 | 2.39 | Fc1ccc(-c2nn(Cc3ccc(-c4ccccc4)cc3)cc2-c2ccncc2)cc1 [Compound 131]
67 | 2.4 | Fc1ccc(-c2nn(Cc3ccc(F)c(Oc4ccccc4)c3)cc2-c2ccncc2)cc1 [Compound 139]
68 | 0.41 | Fc1ccc(-c2nn(Cc3ncc[nH]3)cc2-c2ccncc2)cc1 [Compound 143]
69 | 1.05 | CC(=O)OCCn1cc(-c2ccncc2)c(-c2ccc(F)cc2)n1 [Compound 145]
70 | 2.6 | CC(C)Cn1cc(-c2ccnc3c2CC(=O)N3)c(-c2ccc(F)cc2)n1 [Compound 147]
71 | 2.37 | C=CCNc1nccc(-c2cnn(CC(C)C)c2-c2ccc(F)cc2)n1 [Compound 149]

same assay, conditions: pH 2.7, logP (pH 2.7)

Row | SMILES | chromatographic logP
72 | CC(C)n1cc(-c2ccnc3ccccc23)c(-c2ccc(F)cc2)n1 [[I-1], 4-[3-(4-Fluorophenyl)-1-isopropyl-1H-pyrazol-4-yl]quinoline] | 2.23
73 | CCC(=O)Nc1cc(-c2cn(CCOC)nc2-c2ccc(F)cc2)ccn1 [[I-2], N-{4-[3-(4-Fluorophenyl)-1-(2-methoxyethyl)-1H-pyrazol-4-yl]pyridin-2-yl}propanamide] | 1.61
74 | N#Cc1cccc(Cn2cc(-c3ccncc3)c(-c3ccc(F)cc3)n2)c1 [[I-3], 3-{[3-(4-Fluorophenyl)-4-(pyridin-4-yl)-1H-pyrazol-1-yl]methyl}benzonitrile] | 1.51
75 | N#Cc1cccc(Cn2ncc(-c3ccncc3)c2-c2ccc(F)cc2)c1 [[I-4], 3-{[5-(4-Fluorophenyl)-4-(pyridin-4-yl)-1H-pyrazol-1-yl]methyl}benzonitrile] | 1.38
